The structures appear in SMILES notation.

In this assay the target is T1, glucan synthase (GS) (Candida albicans, UniProt O13428).
T1 construct: Extraction of GS activity from membranes was performed at a protein concentration of 5 mg/mL in extraction buffer; endogenous in cells; host or cells: Candida albicans MY1055 (membrane fraction, detergent extraction, product entrapment)
T1 sequence (O13428 1-1897): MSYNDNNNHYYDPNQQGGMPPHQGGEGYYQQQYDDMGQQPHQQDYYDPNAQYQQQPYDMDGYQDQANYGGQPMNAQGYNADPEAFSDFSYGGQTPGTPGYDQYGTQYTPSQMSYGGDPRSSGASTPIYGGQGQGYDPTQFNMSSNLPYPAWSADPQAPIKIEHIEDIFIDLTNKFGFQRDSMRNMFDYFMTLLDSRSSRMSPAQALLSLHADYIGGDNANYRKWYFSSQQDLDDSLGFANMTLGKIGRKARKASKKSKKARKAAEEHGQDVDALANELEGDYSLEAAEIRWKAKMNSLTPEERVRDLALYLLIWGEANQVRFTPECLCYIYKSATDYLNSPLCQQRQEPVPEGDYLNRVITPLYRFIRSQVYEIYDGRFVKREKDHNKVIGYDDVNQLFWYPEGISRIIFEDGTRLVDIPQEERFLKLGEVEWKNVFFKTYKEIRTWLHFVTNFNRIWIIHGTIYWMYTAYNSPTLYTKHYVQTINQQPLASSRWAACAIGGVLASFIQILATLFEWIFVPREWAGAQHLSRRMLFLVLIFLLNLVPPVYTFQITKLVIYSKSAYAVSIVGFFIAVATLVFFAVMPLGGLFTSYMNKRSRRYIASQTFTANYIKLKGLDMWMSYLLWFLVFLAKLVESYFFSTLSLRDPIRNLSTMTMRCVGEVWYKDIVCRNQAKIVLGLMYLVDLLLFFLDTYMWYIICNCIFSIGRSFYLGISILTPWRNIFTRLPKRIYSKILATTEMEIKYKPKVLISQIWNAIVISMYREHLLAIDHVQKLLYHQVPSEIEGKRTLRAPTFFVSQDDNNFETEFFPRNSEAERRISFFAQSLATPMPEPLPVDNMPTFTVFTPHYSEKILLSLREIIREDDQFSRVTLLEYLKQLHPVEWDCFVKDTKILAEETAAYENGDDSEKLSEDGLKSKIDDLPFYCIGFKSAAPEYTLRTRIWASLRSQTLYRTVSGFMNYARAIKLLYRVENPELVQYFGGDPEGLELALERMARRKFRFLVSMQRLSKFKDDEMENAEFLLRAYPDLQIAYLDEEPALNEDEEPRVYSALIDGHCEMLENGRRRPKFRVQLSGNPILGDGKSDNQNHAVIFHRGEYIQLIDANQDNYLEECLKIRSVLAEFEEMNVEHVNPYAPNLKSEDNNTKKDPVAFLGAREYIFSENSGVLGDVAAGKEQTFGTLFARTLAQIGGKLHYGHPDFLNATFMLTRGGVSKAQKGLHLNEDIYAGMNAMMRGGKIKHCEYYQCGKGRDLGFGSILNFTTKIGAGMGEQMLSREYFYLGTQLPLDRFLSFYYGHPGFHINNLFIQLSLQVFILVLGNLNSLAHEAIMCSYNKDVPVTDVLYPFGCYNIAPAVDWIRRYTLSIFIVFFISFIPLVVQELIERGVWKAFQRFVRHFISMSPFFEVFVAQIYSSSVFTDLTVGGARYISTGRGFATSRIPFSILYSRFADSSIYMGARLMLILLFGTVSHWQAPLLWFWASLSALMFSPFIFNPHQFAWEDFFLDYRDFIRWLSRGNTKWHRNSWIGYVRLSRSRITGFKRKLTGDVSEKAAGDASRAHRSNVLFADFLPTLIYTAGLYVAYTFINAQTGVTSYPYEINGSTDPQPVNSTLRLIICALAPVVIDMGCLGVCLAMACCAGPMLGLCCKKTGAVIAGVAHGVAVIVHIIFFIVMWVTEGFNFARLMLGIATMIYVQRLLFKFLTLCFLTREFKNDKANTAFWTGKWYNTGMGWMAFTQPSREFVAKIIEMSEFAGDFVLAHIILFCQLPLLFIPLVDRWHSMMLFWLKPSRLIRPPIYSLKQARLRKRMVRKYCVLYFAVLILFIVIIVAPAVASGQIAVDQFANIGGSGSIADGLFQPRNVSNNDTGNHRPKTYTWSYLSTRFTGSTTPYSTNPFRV
T1 sequence (O42825 1-195 partner limits assumed): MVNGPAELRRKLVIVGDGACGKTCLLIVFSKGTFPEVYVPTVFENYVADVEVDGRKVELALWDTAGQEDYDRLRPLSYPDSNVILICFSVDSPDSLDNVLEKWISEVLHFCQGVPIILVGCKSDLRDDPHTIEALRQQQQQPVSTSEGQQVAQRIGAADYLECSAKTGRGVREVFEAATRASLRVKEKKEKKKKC
Put plainly: Glucan synthase inhibition (polymerization assay, 96-well). In kind it is biochemical. The settings on record: glucan synthase prepared from Candida albicans MY1055; 60 min incubation at 22° C.; read-out: Candida Albicans GS IC50 (ng/mL) (converted). As for the experimental part: The in vitro evaluation of glucan synthase inhibitory activity of compounds was measured in a polymerization assay in 96-well format. Each well contained 100 μL of ^3H-UDPG at 0.5 mM (6000 to 8000 dpm/nmol), 50 mM HEPES pH 7.5 (Sigma), 10% w/v glycerol (Sigma), 1.5 mg/mL bovine serum albumin (Sigma A 9647. Lot 44H0190), 25 mM KF (Fisher), 1 mM EDTA (Gibco ULTRAPURE), 25 μM GTP-γ-S, enzyme sufficient to give 3 to 6 nmoles incorporation during the 60 min incubation at 22° C., and test compound added from wells in 3-fold serial dilutions in 100% DMSO (1 μL/well). The reaction was stopped by the addition of 100 μL of 20% trichloroacetic acid. Plates were chilled for a minimum of 10 min, and precipitated glucan collected by filtration on GF/C plates (Packard UNIFILTER®-96), washed with 5 cycles of water (about 1 mL/well each cycle) using a Packard FILTERMATE HARVESTER. 40 μL/well scintillation fluid (Packard ULTIMA GOLD TM-XR) was added and the sealed plates counted in a WALLAC BETA counter in top-counting mode at an efficiency of approximately 40%.
Stock solutions were stored at 10 mg/mL in DMSO at −20° C. For each new enzyme preparation, the initial titration performed started at 1 mg/mL, which was prepared by making a 10-fold dilution in DMSO (5 μL to 50 μL). 40 μL of this stock was placed in column 12 of a round-bottomed 96-well microtiter plate. 40 μL DMSO was added to columns 1 to 11 in the same row and ten 3-fold serial dilutions performed, by transferring 20 μL from column 12 to column 11 etc., with 4 mixings before each transfer. No test compound was transferred to from column 2 to column 1. Duplicate aliquots of 1 μL of all 12 dilutions were then transferred to the side walls of a 96-well Bioblock 1.1 mL plate (Fisher brand) to create two rows. Graphs of the primary data were created in PRISM software (the average of two determinations) using PRISM's curve fitting program (sigmoidal dose response non-linear regression). The amount of compound required to inhibit glucan synthase activity by 50% in this assay (IC50-ng/mL) was calculated.
Routine analysis was performed with glucan synthase (GS) prepared from Candida albicans MY1055 by the following procedure: MY1055 was grown in 10 liters YPD medium (10 g yeast extract, 20 g tryptone, 20 g glucose per liter) with vigorous shaking at 30° C., to early stationary phase. Cells were harvested by centrifugation, the pellet was washed and frozen at −70° C. until breakage. Thawed pellets were shaken with an equal volume of breakage buffer (50 mM HEPES pH 7.4, 10% glycerol, 1 mM EDTA, 1 mM PMSF, 1 mM DTT) and 4 times their weight of 0.5 mm acid washed glass beads for 2 hours at 4° C. Extent of breakage was assessed visually at 40× magnification. After low speed centrifugation to remove cell debris, the supernatant was centrifuged at 100,000×g for 60 min. to separate membranes plus ribosomes from cytoplasmic components. Membranes were further washed two additional times with breakage buffer using the same centrifugation conditions and finally suspended in breakage buffer at 25 to 30 mg/mL protein (Biorad) for storage at −70° C. Extraction of GS activity from membranes was performed at a protein concentration of 5 mg/mL in extraction buffer (50 mM NaPO4 pH 7.5, 0.1 M KCl, 0.1M Na citrate, 20% glycerol, 5 μM GTP-γ-S, 1 mM DTT, 1 mM PMSF, 3 μg/mL pepstatin) plus 0.25% W1 by gentle mixing at 4° C. for 60 min, followed by centrifugation at 100,000×g for 60 min. After centrifugation, clear supernatant was removed from a pellet consisting of a hard layer usually with small amounts of gelatinous unextracted membranes above it.
Trapping was initiated immediately by 5-fold dilution in trapping buffer (50 mM HEPES pH 7.5, 10 mM KF, 1 mM EDTA, 2 mg/mL BSA) plus 2.5 mM UDPG and 10 μM GTP-γ-S. After incubation at 25° C. for 60 to 90 minutes, glucan was harvested by low speed centrifugation (3,000×g, 10 min). […]
Consider `CC(C)[C@@H](C)[C@@]1(C)CC[C@]2(C)[C@H]3CC[C@@H]4[C@@]5(COC[C@@]4(C)[C@@H](OC[C@](C)(C(C)C)N(C)C)[C@H](n4nnc(N)n4)C5)C3=CC(=O)[C@@]2(C)[C@@H]1C(=O)O` (single isomer, unassigned) [Example 15A], for which the IC50 was 64.6 nM.

Turning to `CC(C)[C@@H](C)[C@@]1(C)CC[C@]2(C)[C@H]3CC[C@@H]4C5(COCC4(C)[C@@H](OCC4CCCN4C)[C@H](n4nnc(N)n4)C5)C3=CC[C@@]2(C)[C@@H]1C(=O)O` (stereo in doubt) [Example 46, (1S,4aR,6aS,7R,8R,10aR,10bR,12aR,14R,15R)-14-(5-amino-2H-tetrazol-2-yl)-8-[(1R)-1,2-dimethylpropyl]-15-[(1-methyl-2-pyrrolidinyl)methoxy]-1,6,6a,7,8,9,10,10a,10b,11,12,12a-dodecahydro-1,6a,8,10a-tetramethyl-4H-1,4a-propano-2H-phenanthro[1,2-c]pyran-7-carboxylic acid], the IC50 was 21.4 nM. With `CC(C)[C@@H](C)[C@@]1(C)CC[C@]2(C)[C@H]3CC[C@@H]4[C@@]5(COC[C@@]4(C)[C@@H](OCC(C)(C)N)[C@H](n4ncnn4)C5)C3=CC[C@@]2(C)[C@@H]1C(=O)O` [Example 1B, (1S,4aR,6aS,7R,8R,10aR,10bR,12aR,14R,15R)-15-(2-amino-2-methylpropoxy)-8-[(1R)-1,2-dimethylpropyl]-14-(2H-tetrazol-2-yl)-1,6,6a,7,8,9,10,10a,10b,11,12,12a-dodecahydro-1,6a,8,10a-tetramethyl-4H-1,4a-propano-2H-phenanthro[1,2-c]pyran-7-carboxylic acid], the IC50 is 9.81 nM.

With `CC(C)[C@@H](C)[C@@]1(C)CC[C@]2(C)[C@H]3CC[C@@H]4[C@@]5(COC[C@@]4(C)[C@@H](OCC(C)(N)C(C)C)[C@H](n4cnnn4)C5)C3=CC[C@@]2(C)[C@@H]1C(=O)O` (stereo partly drawn) [Example 2A, (1S,4aR,6aS,7R,8R,10aR,10bR,12aR,14R,15R)-15-(2-amino-2,3-dimethylbutoxy)-8-[(1R)-1,2-dimethylpropyl]-14-(1H-tetrazol-1-yl)-1,6,6a,7,8,9,10,10a,10b,11,12,12a-dodecahydro-1,6a,8,10a-tetramethyl-4H-1,4a-propano-2H-phenanthro[1,2-c]pyran-7-carboxylic acid], the IC50 is 82.8 nM. Consider `CC(C)[C@@H](C)[C@@]1(C)CC[C@]2(C)[C@H]3CC[C@@H]4[C@@]5(COC[C@@]4(C)[C@@H](OCC(C)(C(C)C)N(C)C)[C@H](n4ncnn4)C5)C3=CC(=O)[C@@]2(C)[C@@H]1C(=O)O` (stereo partly drawn) [Example 4B, (1S,4aR,6aS,7R,8R,10aR,10bR,12aR,14R,15R)-15-[2-(dimethylamino)-2,3-dimethylbutoxy]-8-[(1R)-1,2-dimethylpropyl]-14-(2H-tetrazol-2-yl)-1,6,6a,7,8,9,10,10a,10b,11,12,12a-dodecahydro-1,6a,8,10a-tetramethyl-6-oxo-4H-1,4a-propano-2H-phenanthro[1,2-c]pyran-7-carboxylic acid], for which the IC50 is 63.1 nM.

Turning to `CC(C)[C@@H](C)[C@@]1(C)CC[C@]2(C)[C@H]3CC[C@@H]4[C@@]5(COC[C@@]4(C)[C@@H](OCC(C)(C)N)[C@H](n4nnc(N)n4)C5)C3=CC[C@@]2(C)[C@@H]1C(=O)O` [Example 6, (1S,4aR,6aS,7R,8R,10aR,10bR,12aR,14R,15R)-15-(2-amino-2-methylpropoxy)-14-(5-amino-2H-tetrazol-2-yl)-8-[(1R)-1,2-dimethylpropyl]-1,6,6a,7,8,9,10,10a,10b,11,12,12a-dodecahydro-1,6a,8,10a-tetramethyl-4H-1,4a-propano-2H-phenanthro[1,2-c]pyran-7-carboxylic acid], the IC50 was 4.79 nM. The result for `CC(C)[C@@H](C)[C@@]1(C)CC[C@]2(C)[C@H]3CC[C@@H]4[C@@]5(COC[C@@]4(C)[C@@H](OC[C@@](C)(C(C)C)N(C)C)[C@H](n4nnc(N)n4)C5)C3=CC[C@@]2(C)[C@@H]1C(=O)O` [Example 8, (1S,4aR,6aS,7R,8R,10aR,10bR,12aR,14R,15R)-14-(5-amino-2H-tetrazol-2-yl)-15-[[(2R)-2-(dimethylamino)-2,3-dimethylbutyl]oxy]-8-[(1R)-1,2-dimethylpropyl]-1,6,6a,7,8,9,10,10a,10b,11,12,12a-dodecahydro-1,6a,8,10a-tetramethyl-4H-1,4 a-propano-2H-phenanthro[1,2-c]pyran-7-carboxylic acid] reads 13.2 nM; that for `CC(C)[C@@H](C)[C@@]1(C)CC[C@]2(C)[C@H]3CC[C@@H]4[C@@]5(COC[C@@]4(C)[C@@H](OC[C@](C)(N)C(C)C)[C@H](n4nnnc4N)C5)C3=CC[C@@]2(C)[C@@H]1C(=O)O` [Example 9, (1S,4aR,6aS,7R,8R,10aR,10bR,12aR,14R,15R)-15-[[(2R)-2-amino-2,3-dimethylbutyl]oxy]-14-(5-amino-1H-tetrazol-1-yl)-8-[(1R)-1,2-dimethylpropyl]-1,6,6a,7,8,9,10,10a,10b,11,12,12a-dodecahydro-1,6a,8,10a-tetramethyl-4H-1,4a-propano-2H-phenanthro[1,2-c]pyran-7-carboxylic acid], 56.5 nM; that for `CC(C)[C@@H](C)[C@@]1(C)CC[C@]2(C)[C@H]3CC[C@@H]4[C@@]5(COC[C@@]4(C)[C@@H](OC[C@](C)(C(C)C)N4CCCCC4)[C@H](n4nnc(N)n4)C5)C3=CC[C@@]2(C)[C@@H]1C(=O)O` [Example 11, (1S,4aR,6aS,7R,8R,10aR,10bR,12aR,14R,15R)-14-(5-amino-2H-tetrazol-2-yl)-15-[[(2S)-2,3-dimethyl-2-(1-piperidinyl)butyl]oxy]-8-[(1R)-1,2-dimethylpropyl]-1,6,6a,7,8,9,10,10a,10b,11,12,12a-dodecahydro-1,6a,8,10a-tetramethyl-4H-1,4a-propano-2H-phenanthro[1,2-c]pyran-7-carboxylic acid], 78.8 nM. As to `CC(C)[C@@H](C)[C@@]1(C)CC[C@]2(C)[C@H]3CC[C@@H]4[C@@]5(COC[C@@]4(C)[C@@H](OC[C@](C)(NCCCO)C(C)C)[C@H](n4nnc(N)n4)C5)C3=CC[C@@]2(C)[C@@H]1C(=O)O` [Example 13, (1S,4aR,6aS,7R,8R,10aR,10bR,12aR,14R,15R)-14-(5-amino-2H-tetrazol-2-yl)-8-[(1R)-1,2-dimethylpropyl]-15-[[(2R)-2-[(3-hydroxypropyl)amino]-2,3-dimethylbutyl]oxy]-1,6,6a,7,8,9,10,10a,10b,11,12,12a-dodecahydro-1,6a,8,10a-tetramethyl-4H-1,4a-propano-2H-phenanthro[1,2-c]pyran-7-carboxylic acid], the IC50 was 2.8 nM. The result for `CCN[C@@](C)(CO[C@H]1[C@H](n2nnc(N)n2)C[C@@]23COC[C@]1(C)[C@@H]2CC[C@H]1C3=CC[C@@]2(C)[C@H](C(=O)O)[C@@](C)([C@H](C)C(C)C)CC[C@]12C)C(C)(C)C` [Example 20, (1S,4aR,6aS,7R,8R,10aR,10bR,12aR,14R,15R)-14-(5-amino-2H-tetrazol-2-yl)-8-[(1R)-1,2-dimethylpropyl]-15-[[(2R)-2-(ethylamino)-2,3,3-trimethylbutyl]oxy]-1,6,6a,7,8,9,10,10a,10b,11,12,12a-dodecahydro-1,6a,8,10a-tetramethyl-4H-1,4a-propano-2H-phenanthro[1,2-c]pyran-7-carboxylic acid] reads 4.3 nM.

The record behind these values is patent publication US8722727B2, “Antifungal agents” (Seynix, Inc., priority 2008, dated 2014).
